Source: PMC6591251, “Discovery of potent necroptosis inhibitors targeting RIPK1 kinase activity for the treatment of inflammatory disorder and cancer metastasis” (Cell Death & Disease, 2019)

Key:
Experiment in all cases: RBC kinase panel
Type in all cases: biochemical
Conditions in all cases: ATP 10 μM, Data1, Data2
[1] = target: T1, MRCKb/CDC42BPB (Homo sapiens, UniProt Q9Y5S2)
T1 construct: purchased Reaction Biology Corporation
Summary of the method: (§1)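 Test compound was screened at a single concentration of 1 μM, in duplicate, across a panel of 369 human kinases. Every kinase reaction contained 10 μM ATP.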

[2] = target: T2, PIM1 (Homo sapiens, UniProt P11309)
T2 construct: purchased Reaction Biology Corporation
Summary of the method: as §1

[3] = target: T3, PAK4 (Homo sapiens, UniProt O96013)
T3 construct: purchased Reaction Biology Corporation
Summary of the method: as §1

[4] = target: T4, CAMK1a (Homo sapiens, UniProt Q14012)
T4 construct: purchased Reaction Biology Corporation
Summary of the method: as §1

[5] = target: T5, PKCd (Homo sapiens, UniProt Q05655)
T5 construct: purchased Reaction Biology Corporation
Summary of the method: as §1

[6] = target: T6, NEK2 (Homo sapiens, UniProt P51955)
T6 construct: purchased Reaction Biology Corporation
T6 sequence (P51955 whole entry): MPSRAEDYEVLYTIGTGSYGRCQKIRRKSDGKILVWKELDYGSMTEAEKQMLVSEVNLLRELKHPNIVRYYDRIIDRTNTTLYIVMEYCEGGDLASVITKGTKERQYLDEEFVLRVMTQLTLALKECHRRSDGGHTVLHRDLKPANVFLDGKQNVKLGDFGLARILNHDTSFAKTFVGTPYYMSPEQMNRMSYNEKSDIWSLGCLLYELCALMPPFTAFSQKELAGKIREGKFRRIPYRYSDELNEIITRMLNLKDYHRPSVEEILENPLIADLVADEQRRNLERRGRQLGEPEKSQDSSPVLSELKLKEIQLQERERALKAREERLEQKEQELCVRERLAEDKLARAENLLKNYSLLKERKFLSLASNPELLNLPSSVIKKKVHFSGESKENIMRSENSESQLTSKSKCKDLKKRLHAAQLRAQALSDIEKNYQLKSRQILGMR
Summary of the method: as §1

[7] = target: T7, CK1d (Homo sapiens, UniProt P48730)
T7 construct: purchased Reaction Biology Corporation
Summary of the method: as §1

[8] = target: T8, DYRK2 (Homo sapiens, UniProt Q92630)
T8 construct: purchased Reaction Biology Corporation
Summary of the method: as §1

[9] = target: T9, TESK2 (Homo sapiens, UniProt Q96S53)
T9 construct: purchased Reaction Biology Corporation
Summary of the method: as §1

[10] = target: T10, PKCepsilon (Homo sapiens, UniProt Q02156)
T10 construct: purchased Reaction Biology Corporation
Summary of the method: as §1

[11] = target: T11, MYO3b (Homo sapiens, UniProt Q8WXR4)
T11 construct: purchased Reaction Biology Corporation
T11 sequence (Q8WXR4 whole entry): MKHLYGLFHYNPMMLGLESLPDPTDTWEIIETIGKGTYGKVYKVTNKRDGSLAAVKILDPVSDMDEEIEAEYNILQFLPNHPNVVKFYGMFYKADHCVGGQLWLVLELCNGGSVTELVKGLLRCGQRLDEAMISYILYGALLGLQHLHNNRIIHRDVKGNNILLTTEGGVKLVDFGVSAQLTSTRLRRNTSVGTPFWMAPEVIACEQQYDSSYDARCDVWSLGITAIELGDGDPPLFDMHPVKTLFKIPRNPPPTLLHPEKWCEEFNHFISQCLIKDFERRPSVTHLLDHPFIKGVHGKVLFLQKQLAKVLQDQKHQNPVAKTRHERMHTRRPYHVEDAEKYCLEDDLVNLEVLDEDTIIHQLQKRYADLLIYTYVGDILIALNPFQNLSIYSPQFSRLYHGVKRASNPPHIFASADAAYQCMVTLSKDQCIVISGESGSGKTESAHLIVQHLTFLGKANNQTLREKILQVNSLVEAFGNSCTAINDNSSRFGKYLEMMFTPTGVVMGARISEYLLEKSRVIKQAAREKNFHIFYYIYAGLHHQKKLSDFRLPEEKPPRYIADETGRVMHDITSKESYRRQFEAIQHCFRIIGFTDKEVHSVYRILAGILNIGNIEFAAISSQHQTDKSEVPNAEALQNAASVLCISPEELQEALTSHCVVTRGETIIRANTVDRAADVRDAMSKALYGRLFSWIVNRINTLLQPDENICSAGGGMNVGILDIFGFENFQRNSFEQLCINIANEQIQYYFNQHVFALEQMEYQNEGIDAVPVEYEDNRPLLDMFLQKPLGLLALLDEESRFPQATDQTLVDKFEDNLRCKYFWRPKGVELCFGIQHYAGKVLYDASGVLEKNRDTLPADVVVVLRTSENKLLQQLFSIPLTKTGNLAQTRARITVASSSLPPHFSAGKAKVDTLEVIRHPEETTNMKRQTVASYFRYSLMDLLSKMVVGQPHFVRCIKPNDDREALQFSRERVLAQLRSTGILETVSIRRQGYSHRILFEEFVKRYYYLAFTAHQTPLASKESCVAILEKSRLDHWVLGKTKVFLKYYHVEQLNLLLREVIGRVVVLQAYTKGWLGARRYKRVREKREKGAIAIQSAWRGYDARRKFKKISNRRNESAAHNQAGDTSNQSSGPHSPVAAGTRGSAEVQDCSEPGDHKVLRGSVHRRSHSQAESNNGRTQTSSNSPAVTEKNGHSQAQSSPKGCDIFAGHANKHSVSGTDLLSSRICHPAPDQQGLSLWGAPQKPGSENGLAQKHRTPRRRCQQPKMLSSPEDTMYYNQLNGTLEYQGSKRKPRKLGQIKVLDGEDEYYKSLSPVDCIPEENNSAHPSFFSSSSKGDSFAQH
Summary of the method: as §1

[12] = target: T12, NEK5 (Homo sapiens, UniProt Q6P3R8)
T12 construct: purchased Reaction Biology Corporation
T12 sequence (Q6P3R8 whole entry): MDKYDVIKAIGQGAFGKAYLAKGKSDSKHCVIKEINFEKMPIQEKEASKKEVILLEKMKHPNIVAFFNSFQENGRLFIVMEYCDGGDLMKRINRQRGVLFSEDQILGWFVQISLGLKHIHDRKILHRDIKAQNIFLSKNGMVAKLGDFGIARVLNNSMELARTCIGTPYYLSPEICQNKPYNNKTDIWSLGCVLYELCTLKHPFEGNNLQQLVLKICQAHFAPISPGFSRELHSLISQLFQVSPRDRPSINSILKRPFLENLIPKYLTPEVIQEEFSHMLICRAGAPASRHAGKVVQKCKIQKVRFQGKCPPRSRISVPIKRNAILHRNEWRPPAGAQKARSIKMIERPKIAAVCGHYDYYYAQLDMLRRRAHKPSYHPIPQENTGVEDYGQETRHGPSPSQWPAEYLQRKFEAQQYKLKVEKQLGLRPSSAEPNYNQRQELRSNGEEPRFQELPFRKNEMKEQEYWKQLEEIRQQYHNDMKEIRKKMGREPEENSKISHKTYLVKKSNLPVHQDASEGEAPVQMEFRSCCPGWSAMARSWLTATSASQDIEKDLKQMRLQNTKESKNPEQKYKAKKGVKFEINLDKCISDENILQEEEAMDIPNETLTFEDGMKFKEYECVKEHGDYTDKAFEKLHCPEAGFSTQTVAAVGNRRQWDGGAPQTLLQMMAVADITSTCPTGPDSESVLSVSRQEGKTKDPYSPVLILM
Summary of the method: as §1

[13] = target: T13, MLK2/MAP3K10 (Homo sapiens, UniProt Q02779)
T13 construct: purchased Reaction Biology Corporation
Summary of the method: as §1

[14] = target: T14, CDK16/cyclin Y (PCTAIRE) (Homo sapiens, UniProt Q00536)
T14 construct: purchased Reaction Biology Corporation
Summary of the method: as §1

[15] = target: T15, TIE2/TEK (Homo sapiens, UniProt Q02763)
T15 construct: purchased Reaction Biology Corporation
Summary of the method: as §1

[16] = target: T16, KSR1 (Homo sapiens, UniProt Q8IVT5)
T16 construct: purchased Reaction Biology Corporation
Summary of the method: as §1

[17] = target: T17, HIPK2 (Homo sapiens, UniProt Q9H2X6)
T17 construct: purchased Reaction Biology Corporation
Summary of the method: as §1

[18] = target: T18, GSK3b (Homo sapiens, UniProt P49841)
T18 construct: purchased Reaction Biology Corporation
Summary of the method: as §1

[19] = target: T19, MAK (Homo sapiens, UniProt P20794)
T19 construct: purchased Reaction Biology Corporation
T19 sequence (P20794 whole entry): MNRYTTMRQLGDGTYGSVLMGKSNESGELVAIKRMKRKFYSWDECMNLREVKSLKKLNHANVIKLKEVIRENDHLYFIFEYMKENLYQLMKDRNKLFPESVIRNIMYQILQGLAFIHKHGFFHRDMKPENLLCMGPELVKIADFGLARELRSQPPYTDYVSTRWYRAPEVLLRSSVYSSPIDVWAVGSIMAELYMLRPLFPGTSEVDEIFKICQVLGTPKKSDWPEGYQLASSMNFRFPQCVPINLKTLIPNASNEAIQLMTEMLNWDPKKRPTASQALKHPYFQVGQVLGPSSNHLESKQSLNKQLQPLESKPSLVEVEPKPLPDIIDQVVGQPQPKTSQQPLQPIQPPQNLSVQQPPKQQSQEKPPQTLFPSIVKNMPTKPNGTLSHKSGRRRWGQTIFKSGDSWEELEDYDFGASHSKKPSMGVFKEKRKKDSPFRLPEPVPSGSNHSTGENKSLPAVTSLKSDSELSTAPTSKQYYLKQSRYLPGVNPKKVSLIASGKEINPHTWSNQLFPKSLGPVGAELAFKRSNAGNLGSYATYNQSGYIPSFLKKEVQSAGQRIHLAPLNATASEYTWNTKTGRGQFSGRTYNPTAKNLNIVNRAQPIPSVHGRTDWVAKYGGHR
Summary of the method: as §1

[20] = target: T20, MSSK1/STK23 (Homo sapiens, UniProt Q9UPE1)
T20 construct: purchased Reaction Biology Corporation
T20 sequence (Q9UPE1 whole entry): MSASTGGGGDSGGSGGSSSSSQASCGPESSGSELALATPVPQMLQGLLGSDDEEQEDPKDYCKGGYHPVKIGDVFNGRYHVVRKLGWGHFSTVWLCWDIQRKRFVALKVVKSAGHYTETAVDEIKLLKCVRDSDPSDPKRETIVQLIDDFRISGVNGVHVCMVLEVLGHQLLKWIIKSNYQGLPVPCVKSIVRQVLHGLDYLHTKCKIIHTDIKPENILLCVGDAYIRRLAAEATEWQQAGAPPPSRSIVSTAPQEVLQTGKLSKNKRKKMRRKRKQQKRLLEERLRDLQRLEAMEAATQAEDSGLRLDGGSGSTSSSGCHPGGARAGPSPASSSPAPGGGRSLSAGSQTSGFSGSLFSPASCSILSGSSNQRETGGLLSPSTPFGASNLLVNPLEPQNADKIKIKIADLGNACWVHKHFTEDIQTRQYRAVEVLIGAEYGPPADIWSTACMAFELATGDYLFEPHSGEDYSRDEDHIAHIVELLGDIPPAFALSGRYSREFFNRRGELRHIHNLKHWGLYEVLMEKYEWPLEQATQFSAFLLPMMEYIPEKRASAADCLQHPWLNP
Summary of the method: as §1

[21] = target: T21, RIPK4 (Homo sapiens, UniProt P57078)
T21 construct: purchased Reaction Biology Corporation
Summary of the method: as §1

[22] = target: T22, FRK/PTK5 (Homo sapiens, UniProt P42685)
T22 construct: purchased Reaction Biology Corporation
Summary of the method: as §1

[23] = target: T23, MYO3A (Homo sapiens, UniProt Q8NEV4)
T23 construct: purchased Reaction Biology Corporation
Summary of the method: as §1

[24] = target: T24, STK16 (Homo sapiens, UniProt O75716)
T24 construct: purchased Reaction Biology Corporation
T24 sequence (O75716 whole entry): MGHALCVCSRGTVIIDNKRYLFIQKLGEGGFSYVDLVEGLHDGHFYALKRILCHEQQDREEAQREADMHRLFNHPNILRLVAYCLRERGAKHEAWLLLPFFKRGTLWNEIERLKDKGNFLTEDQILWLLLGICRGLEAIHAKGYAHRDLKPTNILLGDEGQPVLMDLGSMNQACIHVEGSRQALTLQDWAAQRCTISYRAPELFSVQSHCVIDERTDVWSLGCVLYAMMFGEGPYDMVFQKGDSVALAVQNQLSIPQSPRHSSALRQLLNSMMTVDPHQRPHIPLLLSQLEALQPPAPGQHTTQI
Summary of the method: as §1

[25] = target: T25, CDK6/cyclin D3 (Homo sapiens, UniProt Q00534)
T25 construct: purchased Reaction Biology Corporation
Summary of the method: as §1

[26] = target: T26, CSK (Homo sapiens, UniProt P41240)
T26 construct: purchased Reaction Biology Corporation
Summary of the method: as §1

[27] = target: T27, ERK7/MAPK15 (Homo sapiens, UniProt Q8TD08)
T27 construct: purchased Reaction Biology Corporation
Summary of the method: as §1

[28] = target: T28, DAPK2 (Homo sapiens, UniProt Q9UIK4)
T28 construct: purchased Reaction Biology Corporation
Summary of the method: as §1

[29] = target: T29, ERN2/IRE2 (Homo sapiens, UniProt Q76MJ5)
T29 construct: purchased Reaction Biology Corporation
T29 sequence (Q76MJ5 35-926): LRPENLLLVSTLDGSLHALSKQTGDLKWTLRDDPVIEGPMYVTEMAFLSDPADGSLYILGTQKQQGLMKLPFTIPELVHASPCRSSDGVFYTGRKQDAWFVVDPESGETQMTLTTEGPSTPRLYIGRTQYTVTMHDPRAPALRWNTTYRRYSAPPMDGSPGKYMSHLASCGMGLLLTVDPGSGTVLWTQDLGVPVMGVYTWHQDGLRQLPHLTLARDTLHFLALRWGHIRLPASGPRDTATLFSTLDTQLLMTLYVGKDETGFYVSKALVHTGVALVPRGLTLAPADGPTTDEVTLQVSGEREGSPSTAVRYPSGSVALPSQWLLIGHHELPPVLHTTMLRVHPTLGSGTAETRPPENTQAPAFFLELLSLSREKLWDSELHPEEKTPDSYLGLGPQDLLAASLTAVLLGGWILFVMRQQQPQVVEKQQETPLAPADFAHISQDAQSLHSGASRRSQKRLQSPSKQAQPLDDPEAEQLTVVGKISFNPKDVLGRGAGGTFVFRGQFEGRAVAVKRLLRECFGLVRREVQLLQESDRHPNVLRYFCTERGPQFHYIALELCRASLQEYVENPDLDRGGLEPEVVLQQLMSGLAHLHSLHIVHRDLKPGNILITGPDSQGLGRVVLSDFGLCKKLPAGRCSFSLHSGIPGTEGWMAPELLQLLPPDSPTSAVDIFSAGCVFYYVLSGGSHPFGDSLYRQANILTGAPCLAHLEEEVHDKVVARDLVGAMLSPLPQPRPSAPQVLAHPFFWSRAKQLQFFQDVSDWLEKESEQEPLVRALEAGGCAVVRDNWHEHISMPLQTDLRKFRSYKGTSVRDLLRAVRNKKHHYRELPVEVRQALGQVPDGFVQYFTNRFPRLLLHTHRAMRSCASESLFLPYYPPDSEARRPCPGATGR
Summary of the method: as §1

[30] = target: T30, TTBK1 (Homo sapiens, UniProt Q5TCY1)
T30 construct: purchased Reaction Biology Corporation
Summary of the method: as §1

[31] = target: T31, MAPKAPK2 (Homo sapiens, UniProt P49137)
T31 construct: purchased Reaction Biology Corporation
Summary of the method: as §1

[32] = target: T32, PLK3 (Homo sapiens, UniProt Q9H4B4)
T32 construct: purchased Reaction Biology Corporation
Summary of the method: as §1

[33] = target: T33, GCK/MAP4K2 (Homo sapiens, UniProt Q12851)
T33 construct: purchased Reaction Biology Corporation
Summary of the method: as §1

Structure (SMILES): CC(=O)Nc1nc2ccc(-c3cnc(C)c(NC(=O)OC4CCCCC4)c3)cc2s1 [PK68, cyclohexyl (5-(2-acetamidobenzo[d]thiazol-6-yl)-2-methylpyridin-3-yl)carbamate]
- Activity% ([1]; 1 μM): 101.65%
- activity at 1 µM [1]: 104%
- Activity% ([2]; 1 μM): 100.16%
- activity at 1 µM [2]: 102%
- Activity% ([3]; 1 μM): 101.97%
- activity at 1 µM [3]: 104%
- Activity% ([4]; 1 μM): 98.23%
- activity at 1 µM [4]: 98.6%
- Activity% ([5]; 1 μM): 100.58%
- activity at 1 µM [5]: 101%
- Activity% ([6]; 1 μM): 112.29%
- activity at 1 µM [6]: 115%
- Activity% ([7]; 1 μM): 103.42%
- activity at 1 µM [7]: 105%
- Activity% ([8]; 1 μM): 85.35%
- activity at 1 µM [8]: 86.3%
- Activity% ([9]; 1 μM): 92.21%
- activity at 1 µM [9]: 94.3%
- Activity% ([10]; 1 μM): 98.93%
- activity at 1 µM [10]: 99.5%
- Activity% ([11]; 1 μM): 99.36%
- activity at 1 µM [11]: 99.9%
- Activity% ([12]; 1 μM): 95.10%
- activity at 1 µM [12]: 95.5%
- Activity% ([13]; 1 μM): 55.63%
- activity at 1 µM [13]: 57%
- Activity% ([14]; 1 μM): 96.14%
- activity at 1 µM [14]: 99.2%
- Activity% ([15]; 1 μM): 82.66%
- activity at 1 µM [15]: 83.4%
- Activity% ([16]; 1 μM): 101.02%
- activity at 1 µM [16]: 102%
- Activity% ([17]; 1 μM): 110.22%
- activity at 1 µM [17]: 111%
- Activity% ([18]; 1 μM): 97.24%
- activity at 1 µM [18]: 98.1%
- Activity% ([19]; 1 μM): 96.81%
- activity at 1 µM [19]: 97%
- Activity% ([20]; 1 μM): 100.79%
- activity at 1 µM [20]: 103%
- Activity% ([21]; 1 μM): 92.60%
- activity at 1 µM [21]: 94.5%
- Activity% ([22]; 1 μM): 97.78%
- activity at 1 µM [22]: 101%
- Activity% ([23]; 1 μM): 91.22%
- activity at 1 µM [23]: 92.2%
- Activity% ([24]; 1 μM): 85.85%
- activity at 1 µM [24]: 88.2%
- Activity% ([25]; 1 μM): 81.98%
- activity at 1 µM [25]: 82.6%
- Activity% ([26]; 1 μM): 91.36%
- activity at 1 µM [26]: 92.8%
- Activity% ([27]; 1 μM): 96.80%
- activity at 1 µM [27]: 99.3%
- Activity% ([28]; 1 μM): 107.36%
- activity at 1 µM [28]: 109%
- Activity% ([29]; 1 μM): 92.56%
- activity at 1 µM [29]: 93.1%
- Activity% ([30]; 1 μM): 107.17%
- activity at 1 µM [30]: 110%
- Activity% ([31]; 1 μM): 100.37%
- activity at 1 µM [31]: 101%
- Activity% ([32]; 1 μM): 104.01%
- activity at 1 µM [32]: 105%
- Activity% ([33]; 1 μM): 96.82%
- activity at 1 µM [33]: 97.6%
